Entries after “also recorded” stand apart in the source; their conditions may differ.

Common to all, as to assay type: in vivo
Experiment [1] has as its system STZ-induced diabetic mice. Description: Blood glucose in the STZ-induced diabetic mice. The note with it: propolins study; for modulation of blood glucose: 8 weeks, dose 1.2-2.4% of the Januvia dose. Here is the method:
The male FBV mice of 5 weeks old, commercially available from BioLASCO Co., Ilan, Taiwan, were acclimatized for 1 week, prior to administration of streptozotocin (STZ) at 40 mg/kg for 3 consecutive days. STZ was formulated with an aqueous solution of sodium citrate (pH 4.5, 73.5 mg/5 mL) on ice, and then 100 μL of the formulation was dosed by intraperitoneal injection. From day 2 in the 3 consecutive days, the mice were dosed with 5% (w/v) glucose water for 6 consecutive days. After allowing the mice to rest for 10 days, blood glucose levels were measured. After administration of STZ for 1 week, about 5 μL of blood was collected from each of the mice at the tail vein, and was assayed for blood glucose by a blood glucose monitor and chip (FORA, California, U.S.A.). After 1 week, blood glucose was detected once more, and whether blood glucose was smooth or not was evaluated prior to grouping. The values of blood glucose in all of the mice induced to suffer from diabetes were brought to fall within about 300±50 mg/dL. […]
(§1) An appropriate amount of propolins and its relevant derivatives, such as PPA, PPB, PPC, PPD, PPE, PPF, PPG, PPH, PPI or PPJ, was dissolved with 3 ml 95% alcohol and then uniformly mixed with 80 μL Tween 80; after concentrating under reduced pressure for removal of alcohol, it was uniformly dispersed into 16 ml water to give a liquid mixture of propolins. This mixture was fed by 200 μL gavage into the diabetic mice designated as the propolins and its relevant derivative group.
(§2) Sitagliptin (trade name: Januvia), commercially available from American Merck Co., was used as the DPP4 inhibitor. An appropriate amount of sitagliptin was dissolved in water to provide a final concentration allowing administration of the mice at a dose of 370 mg/kg. In the following example, Januvia was representative of the DPP4 inhibitors and acted as a positive control group for reference.
(§3) Tween 80 (80 μL) was mixed into 16 ml water to give a placebo, which was fed by 200 μL gavage into the STZ-induced diabetic mice or normal mice (i.e., the mice without induction for diabetes). Oral gavage was carried out once at a fixed time each day, and weight, feedstuff intake and water intake were measured weekly until tests were finished at 12-13 weeks.

The test system of experiment [2] is STZ-induced diabetic mice. Description: Feedstuff intake of the diabetic mice. The note with it: propolins study. How it is done:
(§4) The male FBV mice of 5 weeks old, commercially available from BioLASCO Co., Ilan, Taiwan, were acclimatized for 1 week, prior to administration of streptozotocin (STZ) at 40 mg/kg for 3 consecutive days. STZ was formulated with an aqueous solution of sodium citrate (pH 4.5, 73.5 mg/5 mL) on ice, and then 100 μL of the formulation was dosed by intraperitoneal injection. From day 2 in the 3 consecutive days, the mice were dosed with 5% (w/v) glucose water for 6 consecutive days. After allowing the mice to rest for 10 days, blood glucose levels were measured. After administration of STZ for 1 week, about 5 μL of blood was collected from each of the mice at the tail vein, and was assayed for blood glucose by a blood glucose monitor and chip (FORA, California, U.S.A.). After 1 week, blood glucose was detected once more, and whether blood glucose was smooth or not was evaluated prior to grouping. The values of blood glucose in all of the mice induced to suffer from diabetes were brought to fall within about 300±50 mg/dL.
(§5) An appropriate amount of the Taiwan Green Propolis alcohol extract was dissolved with 3 ml 95% alcohol and then uniformly mixed with 80 μL Tween 80 as a cosolvent; after concentrating under reduced pressure for removal of alcohol, it was dispersed into 16 ml water to give a liquid mixture of the Taiwan Green Propolis extract. This mixture was fed by 200 μL gavage into the diabetic mice designated as the Taiwan Green Propolis extract group.
as §1, §2, §3

The subject of experiment [3] is STZ-induced diabetic mice. Put plainly: Water intake of the diabetic mice. The note with it: propolins study. Here is the method: as §4, §5, §1, §2, §3
Experiment [4] relates to STZ-induced diabetic mice. Put plainly: Oral glucose tolerance test (OGTT). On the set-up: reduction of AUC compared with the STZ group / extent of reduction of AUC compared with the STZ group: concentration or dose not given beside the values. The note with it: propolins study; for AUC value for blood glucose (integral area) / extent of reduction of AUC compared with the STZ group: OGTT. Here is the method: as §4
After administration of the testing substance to the animals for 12 weeks, the OGTT test was performed for evaluation of secretion and effects of insulin. All of the mice in the test were administered with the testing substance and then fasted for 4 hours prior to blood sampling at the first point called point 0. Afterwards, the mice were fed by oral gavage with 200 μL glucose in water, equivalent to a dose of 1.0 g/kg. After administration, blood was collected for an assay of blood glucose at 15, 30, 60, 120 and 180 minutes, respectively. Therefore, a total of 6 points, including points at 0, 15, 30, 60, 120 and 180 minutes, were obtained. About 5 μL of blood was collected from each of the mice at the tail vein and was then assayed for blood glucose by the blood glucose monitor and chip (FORA, California, U.S.A.). The blood glucose values at the Y-axis were plotted against the time points at the X-axis. Each group was calculated for an area under curve for comparison. The efficacy in regulation of blood glucose was evaluated by the area showing a relationship between the testing substance and secretion and effects of insulin.

Setting [5] is: after administration for 8 weeks by gavage daily, PPC 9.0, PPD 6.75, PPF 4.5, PPG 4.5, Januvia 370 mg/kg/mouse.
Setting [6] is: 0 point, PPC 9.0, PPD 6.75, PPF 4.5, PPG 4.5, DPP4I 370 mg/kg/mouse.
The mark [7] stands for this setting: 30-minute time point after glucose in water.

With `CC(C)=CCC/C(C)=C/Cc1cc([C@@H]2CC(=O)c3c(O)cc(O)cc3O2)cc(O)c1O` [PPF, (S,E)-2-(3-(3,7-dimethylocta-2,6-dien-1-yl)-4,5-dihydroxyphenyl)-5,7-dihydroxy-3,4-dihydro-2H-1-benzopyran-4-one], the “modulation of blood glucose” value in experiment [1] was “effectively highly modulated”. Further, the figures for the blood glucose in experiment [1] (setting [5]) and in experiment [1] (at 0 week) were 398 mg/dL and 330 mg/dL, respectively. The “effect on feedstuff intake” value in experiment [2] is “significantly inhibited feedstuff intake”. The feedstuff intake came out at 6.3 g/mouse in experiment [2] (at 1 week), 7.0 g/mouse in experiment [2] (at 6 weeks) and 6.3 g/mouse in experiment [2] (at 8 weeks). Also, the figures for the water intake in experiment [3] (at 1 week), in experiment [3] (at 6 weeks) and in experiment [3] (at 8 weeks) were 8.0 mL/mouse, 13.0 mL/mouse and 10.0 mL/mouse, respectively. Moreover, the “value of blood glucose in glucose tolerance test” value (from here on “value of blood glucose”) is given as “about 390 mg/dL” in experiment [4] (setting [6]), “about 525 mg/dL” in experiment [4] (setting [7]), “about 420 mg/dL” in experiment [4] (120-minute time point) and 430 mg/dL in experiment [4] (180-minute time point). Also, the “AUC value for blood glucose (integral area)” value (“AUC value for blood glucose” below) in experiment [4] is “about 8.2×10^4”. In addition, the “extent of reduction of AUC compared with the STZ group” value (from here on “extent of reduction of AUC”) in experiment [4] is 15.0%.
For the compound `CC(C)=CCC/C(C)=C/Cc1c(O)cc2c(c1O)C(=O)C[C@@H](c1ccc(O)c(O)c1)O2` [PPC, (S,E)-2-(3,4-dihydroxyphenyl)-6-(3,7-dimethylocta-2,6-dien-1-yl)-5,7-dihydroxy-3,4-dihydro-2H-1-benzopyran-4-one], the “modulation of blood glucose” value in experiment [1] was “highly effectively modulated”. In addition, the blood glucose amounted to 298 mg/dL in experiment [1] (setting [5]) and 330 mg/dL in experiment [1] (at 0 week). In addition, the “effect on feedstuff intake” value in experiment [2] is reported as “significantly inhibited feedstuff intake”. The feedstuff intake amounted to 7.2 g/mouse in experiment [2] (at 1 week), 8.0 g/mouse in experiment [2] (at 6 weeks) and 7.9 g/mouse in experiment [2] (at 8 weeks). Moreover, the “effect on water intake” value in experiment [3] is “significantly inhibited water intake”. Further, the figures for the water intake in experiment [3] (at 1 week), in experiment [3] (at 6 weeks) and in experiment [3] (at 8 weeks) were 8.2 mL/mouse, 16.0 mL/mouse and 24.0 mL/mouse, respectively. Further, the “value of blood glucose” value in experiment [4] (setting [6]) was “about 350 mg/dL”; in experiment [4] (setting [7]), “about 450 mg/dL”; in experiment [4] (120-minute time point), “about 430 mg/dL”; in experiment [4] (180-minute time point), 400 mg/dL. For the same compound, the “AUC value for blood glucose” value in experiment [4] is “about 8.0×10^4”. The “extent of reduction of AUC” value in experiment [4] is listed as 28.2%.
In the case of `CC(C)=CCC/C(C)=C/Cc1c([C@@H]2CC(=O)c3c(O)cc(O)cc3O2)ccc(O)c1O` [PPD, (S,E)-2-(2-(3,7-dimethylocta-2,6-dien-1-yl)-3,4-dihydroxyphenyl)-5,7-dihydroxy-3,4-dihydro-2H-1-benzopyran-4-one], in experiment [1], the “modulation of blood glucose” value is on record as “highly effectively modulated”. The blood glucose in experiment [1] (setting [5]) came to 400 mg/dL; in experiment [1] (at 0 week), 330 mg/dL. Moreover, the “effect on feedstuff intake” value in experiment [2] is “significantly inhibited feedstuff intake”. Further, the feedstuff intake in experiment [2] (at 1 week), in experiment [2] (at 6 weeks) and in experiment [2] (at 8 weeks) was 7.2 g/mouse throughout. In addition, the “effect on water intake” value in experiment [3] is recorded as “significantly inhibited water intake”. For the same compound, the water intake in experiment [3] (at 1 week) came to 8.0 mL/mouse; in experiment [3] (at 6 weeks) it was 14.0 mL/mouse; in experiment [3] (at 8 weeks), 16.0 mL/mouse. Besides, the “value of blood glucose” value is reported as “about 380 mg/dL” in experiment [4] (setting [6]), “about 530 mg/dL” in experiment [4] (setting [7]), “about 490 mg/dL” in experiment [4] (120-minute time point) and 460 mg/dL in experiment [4] (180-minute time point). For the same compound, the “AUC value for blood glucose” value in experiment [4] was “about 8.7×10^4”. The “extent of reduction of AUC” value in experiment [4] was 16.2%.
For the compound `CC(C)=CCC/C(C)=C/Cc1c([C@@H]2CC(=O)c3c(cc(O)c(CC=C(C)C)c3O)O2)ccc(O)c1O` [PPG, (S,E)-2-(2-(3,7-dimethylocta-2,6-dien-1-yl)-3,4-dihydroxyphenyl)-5,7-dihydroxy-6-(3-methylbut-2-en-1-yl)-3,4-dihydro-2H-1-benzopyran-4-one], the “modulation of blood glucose” value in experiment [1] is “higher activity for modulation of blood glucose than DPP4I; also recorded: the most effective compound for modulating blood glucose”. In addition, the blood glucose in experiment [1] (setting [5]) was determined as 298 mg/dL; in experiment [1] (at 0 week) it was 330 mg/dL. Further, the “effect on feedstuff intake” value in experiment [2] is “significantly inhibited feedstuff intake”. Further, the feedstuff intake worked out at 4.8 g/mouse in experiment [2] (at 1 week), 7.0 g/mouse in experiment [2] (at 6 weeks) and 7.2 g/mouse in experiment [2] (at 8 weeks). Also, the water intake in experiment [3] (at 1 week) was determined as 6.5 mL/mouse; in experiment [3] (at 6 weeks), 9.0 mL/mouse; in experiment [3] (at 8 weeks), 9.0 mL/mouse. Also, the “value of blood glucose” value was “about 385 mg/dL” in experiment [4] (setting [6]), “about 525 mg/dL” in experiment [4] (setting [7]), “about 380 mg/dL” in experiment [4] (120-minute time point) and 350 mg/dL in experiment [4] (180-minute time point). Further, in experiment [4], the “AUC value for blood glucose” value is given as “about 7.8×10^4”. Moreover, the “extent of reduction of AUC” value in experiment [4] came to 31.7%. For the same compound, the “efficacy in glucose tolerance test” value in experiment [4] (compared to the STZ group) is recorded as “more excellent efficacy”.

These data come from patent US9457007B2, “Prenylflavanone compounds for modulating diabetes” (NATUREWISE BIOTECH & MEDICALS CORPORATION, priority 2013, dated 2016).
